The subject of one assay is LRRK2 kinase. The conditions noted are these: humans ref 15; cited from earlier work.
A further assay has as its system wild-type HEK293 cells. Put plainly: Mitophagy (Mtphagy dye / Lyso dye live cell imaging) in wild-type HEK293 cells. The format is cell-based, human. The conditions noted are these: 20 μM FCCP, 3 h. The procedure:
(§1) Thirty-five mm cell culture dishes (Cellvis, D35-20-1.5-N) were coated with poly-D-lysine (Sigma-Aldrich, P7280-5MG) for 5 min, washed with cell culture grade water (Sigma-Aldrich, W3500), and allowed to dry for at least 1 h before plating. LRRK2^G2019S/G2019S KI HEK293 and wild-type cells were passaged as described above and plated at 300,000 cells per well on poly-D-lysine-coated dishes. […] Following this, cells were washed three times with serum-free medium, and a working solution of Mtphagy dye (Dojindo, MD-01) was prepared in serum-free medium according to manufacturer protocols. Cultures were incubated with Mtphagy dye for 30 min, followed by three washes with serum-free medium. Complete medium was used to prepare a 20 µM FCCP (Abcam, ab120081) or DMSO control treatment solution, which was used to treat cells for 3 h. Following treatment, cells were then washed 3 times with serum-free medium, and a working solution of Lyso dye (Dojindo, MD-01) was prepared in serum-free medium and used to treat cells for 30 min. Complete medium lacking phenol red was prepared for use in confocal live cell imaging by combining phenol red-free DMEM/F-12 (Fisher Scientific, 21-041-025), FBS (VWR, 97068-085), and penicillin-streptomycin (VWR, 45000-652). Following Lyso dye treatment, cultures were washed three times with phenol red-free medium, followed by adding fresh phenol red-free medium to cell culture dishes. MitoBright LT Deep Red (Dojindo, MT12-12) was diluted in growth medium to prepare a 0.1 μmol/l solution and was used to treat cells for 15 min for total mitochondrial staining. Live cell imaging (5% CO2, 37 °C) was performed using a Zeiss LSM 880 Confocal Laser Scanning Microscope with Zen Black software. On average, ~70 cells were analyzed for each condition per each experimental replicate.
(§2) Following imaging, files were processed using Zen Blue software, and TIFF files of each channel were obtained for analysis. ImageJ was used to obtain readouts for image analysis. All images were converted to 8-bit format. For each respective image, the Lyso dye channel was used to create a mask delineating each lysosomal focus as a region of interest (ROI). Thresholding parameters were adjusted between biological replicates as required to ensure that the Lyso dye ROI encompassed all lysosome foci appropriately, and this was used to create a mask. This was then applied to the corresponding Mtphagy dye channel image, allowing collection of Mtphgy fluorescence intensity readouts for each lysosomal focus. Outliers were removed using Prism software (GraphPad) with the coefficient of removal set to 0.2%. Data was thresholded to exclude lysosomes not containing mitochondria by excluding fluorescence values with intensities equal to or below background levels. The number of ROIs remaining after thresholding was used to quantify lysosomes containing fluorescing mitochondria (mitolysosomes). Fluorescence intensity values for all mitolysosomes per condition per biological replicate were averaged to obtain a value of mitophagy fluorescence intensity per mitolysosome. For each replicate, all values of average mitolysosome fluorescence intensity were normalized to wild-type (vehicle treated) levels for the given replicate.

The test system of assay [1] is LRRK2^G2019S/G2019S KI HEK293 cells. As to the kind of experiment: Mitophagy (Mtphagy dye / Lyso dye live cell imaging) in LRRK2 G2019S/G2019S KI HEK293 cells. The format is cell-based, human. The conditions noted are these: 20 μM FCCP, 3 h. On the procedure:
as §1, §2

For `CNc1nc(Nc2cn(C(C)(C)C#N)nc2C)ncc1C(F)(F)F` [DNL201], the “inhibition of LRRK2 kinase by blood-based markers” value with LRRK2 kinase was “dose-dependent inhibition”.
On to `N#CC(C#N)=NNc1ccc(OC(F)(F)F)cc1` [FCCP], for which the figures for the “mitophagy following FCCP treatment” value (with wild-type HEK293 cells; in assay [1]) were “increased” and “defect”, respectively.

The values are drawn from PMC10907374, “G2019S selective LRRK2 kinase inhibitor abrogates mitochondrial DNA damage” (NPJ Parkinson's Disease, 2024).
